Target: scRio2 (Saccharomyces cerevisiae, UniProt P40160)
Sequence (P40160 whole entry): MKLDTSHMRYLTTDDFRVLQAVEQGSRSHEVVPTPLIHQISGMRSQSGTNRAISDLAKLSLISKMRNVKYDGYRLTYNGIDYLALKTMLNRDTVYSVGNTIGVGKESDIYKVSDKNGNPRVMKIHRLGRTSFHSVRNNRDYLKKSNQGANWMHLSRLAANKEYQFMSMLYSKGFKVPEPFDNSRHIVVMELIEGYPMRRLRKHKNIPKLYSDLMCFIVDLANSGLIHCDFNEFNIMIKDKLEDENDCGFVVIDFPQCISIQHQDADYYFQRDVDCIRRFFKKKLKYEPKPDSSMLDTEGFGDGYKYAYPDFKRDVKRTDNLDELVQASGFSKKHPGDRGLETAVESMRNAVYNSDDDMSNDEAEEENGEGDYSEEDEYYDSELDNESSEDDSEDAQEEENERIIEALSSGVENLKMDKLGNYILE

Question: With `Nc1ncnc2c1ncn2[C@@H]1O[C@H](COP(=O)(O)OP(=O)(O)OP(=O)(O)O)[C@@H](O)[C@H]1O` [ATP] as the compound, how does the “autophosphorylation detected by mass spectrometry” value read?
Answer: Its value is “phospho-serine residues after incubation of purified recombinant scRio2 with ATP”.
